Laboratory results as given in US10695337B2, “Piperidin-4-yl azetidine derivatives as JAK1 inhibitors” (Incyte Corporation, priority 2010, dated 2020).
pIC50: −log10 of the molar value.

What was measured:
Type in all cases: biochemical
[1] = target: human JAK1 (a.a. 837-1142); test: In vitro JAK kinase assay (HTRF, phosphorylation of a biotinylated peptide), JAK1; details: measured at 1 mM ATP; JAK2 IC50 / JAK1 IC50
Outline: (§1)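 Phosphorylation of a biotinylated peptide by purified His-tagged JAK catalytic domains (insect-cell baculovirus expression) ran 1 hr at room temperature. After stopping with EDTA, Eu-Py20 and SA-APC were bound for 40 minutes and HTRF measured.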

[2] = target: human Jak2 (a.a. 828-1132) (Homo sapiens (Human), UniProt O60674); test: In vitro JAK kinase assay (HTRF, phosphorylation of a biotinylated peptide), JAK2; details: measured at 1 mM ATP
Chain of human Jak2 (a.a. 828-1132) (O60674 828-1132): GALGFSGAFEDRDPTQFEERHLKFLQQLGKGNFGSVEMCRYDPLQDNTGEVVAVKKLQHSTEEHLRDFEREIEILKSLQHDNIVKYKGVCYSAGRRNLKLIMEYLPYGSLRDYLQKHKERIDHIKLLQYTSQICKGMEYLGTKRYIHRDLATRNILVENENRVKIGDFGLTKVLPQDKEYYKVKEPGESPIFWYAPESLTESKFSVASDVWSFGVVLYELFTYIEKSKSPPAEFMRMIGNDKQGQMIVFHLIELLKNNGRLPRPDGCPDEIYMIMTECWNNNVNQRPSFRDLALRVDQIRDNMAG
Protocol: Compounds herein were tested for inhibitory activity of JAK targets according to the following in vitro assay described in Park et al., Analytical Biochemistry 1999, 269, 94-104. The catalytic domains of human JAK1 (a.a. 837-1142), Jak2 (a.a. 828-1132) and Jak3 (a.a. 781-1124) with an N-terminal His tag were expressed using baculovirus in insect cells and purified. The catalytic activity of JAK1, JAK2 or JAK3 was assayed by measuring the phosphorylation of a biotinylated peptide. The phosphorylated peptide was detected by homogenous time resolved fluorescence (HTRF). […] Reactions were carried out at room temperature for 1 hr and then stopped with 20 μL 45 mM EDTA, 300 nM SA-APC, 6 nM Eu-Py20 in assay buffer (Perkin Elmer, Boston, Mass.). Binding to the Europium labeled antibody took place for 40 minutes and HTRF signal was measured on a Fusion plate reader (Perkin Elmer, Boston, Mass.).

[3] = target: human JAK1 (a.a. 837-1142) (Homo sapiens, UniProt P23458); test: In vitro JAK kinase assay (HTRF, phosphorylation of a biotinylated peptide), JAK1; details: measured at 1 mM ATP
Outline: as §1

Structure (SMILES)	IC50 Ratio JAK2/JAK1 [1]	pIC50 [2]	pIC50 [3]
CC1CC(N2CC(CC#N)(n3cc(-c4ncnc5[nH]ccc45)cn3)C2)CCN1C(=O)c1cccc(F)c1 (single isomer, unassigned) [Example 149, {1-[1-(3-fluorobenzoyl)-2-methylpiperidin-4-yl]-3-[4-(7H-pyrrolo[2,3-d]pyrimidin-4-yl)-1H-pyrazol-1-yl]azetidin-3-yl}acetonitrile]	5.0	7.30 to 8.00	–
CC1CC(N2CC(CC#N)(n3cc(-c4ncnc5[nH]ccc45)cn3)C2)CCN1C(=O)c1cccc(F)c1 (single isomer, unassigned) [Example 150, {1-[1-(3-fluorobenzoyl)-2-methylpiperidin-4-yl]-3-[4-(7H-pyrrolo[2,3-d]pyrimidin-4-yl)-1H-pyrazol-1-yl]azetidin-3-yl}acetonitrile]	7.0	≥ 8.00	–
CC1CC(N2CC(CC#N)(n3cc(-c4ncnc5[nH]ccc45)cn3)C2)CCN1Cc1ccc(N(C)C)c(C#N)c1F (single isomer, unassigned) [Example 242, 3-[(4-{3-(cyanomethyl)-3-[4-(7H-pyrrolo[2,3-d]pyrimidin-4-yl)-1H-pyrazol-1-yl]azetidin-1-yl}-2-methylpiperidin-1-yl)methyl]-6-(dimethylamino)-2-fluorobenzonitrile]	8.3	7.30 to 8.00	≥ 8.30
CC1CC(N2CC(CC#N)(n3cc(-c4ncnc5[nH]ccc45)cn3)C2)CCN1Cc1ccc(N(C)C)c(C#N)c1F (single isomer, unassigned) [Example 243, 3-[(4-{3-(cyanomethyl)-3-[4-(7H-pyrrolo[2,3-d]pyrimidin-4-yl)-1H-pyrazol-1-yl]azetidin-1-yl}-2-methylpiperidin-1-yl)methyl]-6-(dimethylamino)-2-fluorobenzonitrile]	6.4	< 7.00	7.52 to 7.70
N#CCC1(n2cc(-c3ncnc4[nH]ccc34)cn2)CN(C2CCN(C(=O)c3ccc(-c4cccc5cccnc45)c(F)c3)CC2)C1 [Example 132, {1-[1-(3-fluoro-4-quinolin-8-ylbenzoyl)piperidin-4-yl]-3-[4-(7H-pyrrolo[2,3-d]pyrimidin-4-yl)-1H-pyrazol-1-yl]azetidin-3-yl} acetonitrile]	5.8	–	≥ 8.30
